In test [1] the target is NAD-dependent protein deacylase sirtuin-5, mitochondrial (Homo sapiens, UniProt Q9NXA8). Put plainly: SIRT5 desuccinylase inhibitors, dose response, biochemical, fluorescence imaging, cherry-pick, set 5 (AID 720591).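 Further: desuccinylation of succinyl peptide AMC substrate read as fluorescence after trypsin release; potency of inhibitors that lower fluorescence and may act on trypsin instead.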
In a further test the target is Paired box protein Pax-8 (Homo sapiens, UniProt Q06710). The test can be described thus: inhibitors of PAX8-driven TPO luciferase reporter, dose response, RMG-I cells, cherry-pick (AID 687027).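 Further: luciferase reporter driven by Pax8 target thyroperoxidase promoter measured by SteadyGlo luminescence.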 The format is functional, cell-based. A general note: Reporter assays use an easily measured gene product as a stand-in for the process of interest.
Sequence of Paired box protein Pax-8 (Q06710 whole entry): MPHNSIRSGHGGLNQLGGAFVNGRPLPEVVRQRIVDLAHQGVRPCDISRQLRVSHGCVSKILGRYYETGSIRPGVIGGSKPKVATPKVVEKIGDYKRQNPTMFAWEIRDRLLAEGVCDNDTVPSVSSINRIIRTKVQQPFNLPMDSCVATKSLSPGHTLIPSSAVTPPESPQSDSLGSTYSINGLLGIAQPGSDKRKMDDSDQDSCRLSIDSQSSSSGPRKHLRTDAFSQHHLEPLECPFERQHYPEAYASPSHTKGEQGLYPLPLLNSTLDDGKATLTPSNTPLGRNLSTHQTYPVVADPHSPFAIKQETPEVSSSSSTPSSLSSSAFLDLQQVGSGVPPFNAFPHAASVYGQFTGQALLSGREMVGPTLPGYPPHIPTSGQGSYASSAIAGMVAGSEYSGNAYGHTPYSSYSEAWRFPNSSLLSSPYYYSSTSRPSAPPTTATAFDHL
Test [2] can be described thus: NIH:OVCAR-3 ovarian cancer cell cytotoxicity, dose response, PAX8 inhibitor project, plate reader, dry powder samples (AID 743044). The class given is functional, cell-based.
Test [3] in a line: A375 melanoma cell viability loss, dose response, counter-screen for MITF inhibitor project, CellTiter-Glo luminescence, dry powder, set 4 (AID 624364).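 Further: A375 melanoma cells are MITF independent so this is a counter screen.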 The class given is functional, cell-based. As to conditions: A-375. On the technique in general: The purpose of a counterscreen is to sort out artefacts and off-target activity.
A short description of test [4]: A375 melanoma cell cytotoxicity, dose response, counter-screen for MITF inhibitor project, CellTiter-Glo luminescence, dry powder, set 2 (AID 624489).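 Further: actives are compounds lowering A375 viability meaning general cytotoxicity.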 The format is functional, cell-based. As to conditions: A-375.
Test [5] concerns the target T1, Short transient receptor potential channel 4 (Mus musculus, UniProt Q9QUQ5).
T1 sequence (Q9QUQ5 whole entry): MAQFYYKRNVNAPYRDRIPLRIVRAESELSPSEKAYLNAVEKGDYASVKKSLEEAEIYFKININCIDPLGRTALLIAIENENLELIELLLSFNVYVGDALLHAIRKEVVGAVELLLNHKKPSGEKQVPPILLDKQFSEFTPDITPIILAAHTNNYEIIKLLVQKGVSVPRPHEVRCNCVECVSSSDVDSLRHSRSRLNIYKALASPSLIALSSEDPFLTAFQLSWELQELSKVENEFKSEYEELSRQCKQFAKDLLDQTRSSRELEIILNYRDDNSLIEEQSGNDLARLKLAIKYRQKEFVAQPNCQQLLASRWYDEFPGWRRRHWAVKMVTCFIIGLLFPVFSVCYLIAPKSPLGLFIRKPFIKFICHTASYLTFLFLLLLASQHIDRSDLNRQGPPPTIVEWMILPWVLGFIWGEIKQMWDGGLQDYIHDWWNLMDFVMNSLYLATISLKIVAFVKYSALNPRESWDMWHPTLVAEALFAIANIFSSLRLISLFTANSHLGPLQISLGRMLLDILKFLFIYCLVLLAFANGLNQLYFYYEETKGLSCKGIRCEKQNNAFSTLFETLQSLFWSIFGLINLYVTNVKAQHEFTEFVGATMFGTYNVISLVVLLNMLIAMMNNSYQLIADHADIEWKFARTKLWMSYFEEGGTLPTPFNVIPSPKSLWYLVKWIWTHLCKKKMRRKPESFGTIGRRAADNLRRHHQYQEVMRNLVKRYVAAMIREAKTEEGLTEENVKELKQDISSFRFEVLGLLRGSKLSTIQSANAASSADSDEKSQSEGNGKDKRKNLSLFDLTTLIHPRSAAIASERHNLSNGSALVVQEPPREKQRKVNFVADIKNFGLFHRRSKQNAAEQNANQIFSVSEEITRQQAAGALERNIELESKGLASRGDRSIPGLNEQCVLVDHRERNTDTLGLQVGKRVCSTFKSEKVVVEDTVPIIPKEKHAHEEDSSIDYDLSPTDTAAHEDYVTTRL
Put plainly: mouse TRPC4 channel inhibitors, dose response, cell-based, HEK293 TRPC4/mu-opioid, Fluo-4 calcium (AID 434942).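 Further: potency of inhibitors blocking the TRPC4 calcium response.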 The class given is functional.

Test [6] deals with T2, DNA repair and recombination protein RAD54-like (Homo sapiens, UniProt Q92698).
T2 sequence (Q92698 whole entry): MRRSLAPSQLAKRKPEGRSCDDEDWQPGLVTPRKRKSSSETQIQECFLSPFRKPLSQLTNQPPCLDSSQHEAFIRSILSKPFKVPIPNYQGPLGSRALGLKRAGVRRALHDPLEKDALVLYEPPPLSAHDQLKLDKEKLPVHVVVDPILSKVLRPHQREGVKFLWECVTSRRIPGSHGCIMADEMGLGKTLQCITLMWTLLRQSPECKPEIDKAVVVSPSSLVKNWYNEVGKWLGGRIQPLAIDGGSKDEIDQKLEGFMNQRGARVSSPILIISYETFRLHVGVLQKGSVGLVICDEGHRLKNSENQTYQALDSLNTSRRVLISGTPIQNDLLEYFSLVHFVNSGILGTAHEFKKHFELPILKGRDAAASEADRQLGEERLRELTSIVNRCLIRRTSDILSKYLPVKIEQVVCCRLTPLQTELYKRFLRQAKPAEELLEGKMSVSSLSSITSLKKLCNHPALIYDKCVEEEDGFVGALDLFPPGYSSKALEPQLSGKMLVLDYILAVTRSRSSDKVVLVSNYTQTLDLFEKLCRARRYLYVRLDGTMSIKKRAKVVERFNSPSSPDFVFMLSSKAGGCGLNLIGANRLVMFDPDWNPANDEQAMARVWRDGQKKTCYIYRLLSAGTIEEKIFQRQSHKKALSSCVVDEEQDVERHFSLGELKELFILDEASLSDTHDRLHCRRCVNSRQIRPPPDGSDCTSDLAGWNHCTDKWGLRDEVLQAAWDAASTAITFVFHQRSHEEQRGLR
The test can be described thus: inhibitors of human RAD54 branch migration, confirmation, biochemical, fluorescence, cherry-picked samples, dose series (AID 651657). The format is functional.

Test [7] is described as follows: inhibitors of PGC1a acetylation in cells, dose response, cell-based, cherry-picked samples (AID 720514).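 Further: potency may reflect raised or lowered acetylation signal.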 The class given is functional.
For the next test, the target named is T3, Caspase-3 (Homo sapiens, UniProt P42574).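 Further: Dose-response selectivity test against caspase-3 for candidate inhibitors of sentrin-specific proteases (SENPs).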
T3 sequence (P42574 whole entry): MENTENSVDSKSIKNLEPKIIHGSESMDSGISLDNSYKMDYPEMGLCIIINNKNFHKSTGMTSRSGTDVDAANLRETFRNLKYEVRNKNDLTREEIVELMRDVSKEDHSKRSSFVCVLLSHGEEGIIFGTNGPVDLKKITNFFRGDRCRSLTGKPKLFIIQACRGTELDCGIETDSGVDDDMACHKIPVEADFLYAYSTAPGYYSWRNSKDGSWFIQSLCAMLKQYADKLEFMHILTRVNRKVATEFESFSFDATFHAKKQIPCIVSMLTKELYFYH
The format is functional.

For test [8], the target named is T4, Sentrin-specific protease 7 (Homo sapiens, UniProt Q9BQF6).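 Further: Luminescence-based dose-response confirmation of ultra-high-throughput screening hits, measuring inhibition of SENP7.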
T4 sequence (Q9BQF6 whole entry): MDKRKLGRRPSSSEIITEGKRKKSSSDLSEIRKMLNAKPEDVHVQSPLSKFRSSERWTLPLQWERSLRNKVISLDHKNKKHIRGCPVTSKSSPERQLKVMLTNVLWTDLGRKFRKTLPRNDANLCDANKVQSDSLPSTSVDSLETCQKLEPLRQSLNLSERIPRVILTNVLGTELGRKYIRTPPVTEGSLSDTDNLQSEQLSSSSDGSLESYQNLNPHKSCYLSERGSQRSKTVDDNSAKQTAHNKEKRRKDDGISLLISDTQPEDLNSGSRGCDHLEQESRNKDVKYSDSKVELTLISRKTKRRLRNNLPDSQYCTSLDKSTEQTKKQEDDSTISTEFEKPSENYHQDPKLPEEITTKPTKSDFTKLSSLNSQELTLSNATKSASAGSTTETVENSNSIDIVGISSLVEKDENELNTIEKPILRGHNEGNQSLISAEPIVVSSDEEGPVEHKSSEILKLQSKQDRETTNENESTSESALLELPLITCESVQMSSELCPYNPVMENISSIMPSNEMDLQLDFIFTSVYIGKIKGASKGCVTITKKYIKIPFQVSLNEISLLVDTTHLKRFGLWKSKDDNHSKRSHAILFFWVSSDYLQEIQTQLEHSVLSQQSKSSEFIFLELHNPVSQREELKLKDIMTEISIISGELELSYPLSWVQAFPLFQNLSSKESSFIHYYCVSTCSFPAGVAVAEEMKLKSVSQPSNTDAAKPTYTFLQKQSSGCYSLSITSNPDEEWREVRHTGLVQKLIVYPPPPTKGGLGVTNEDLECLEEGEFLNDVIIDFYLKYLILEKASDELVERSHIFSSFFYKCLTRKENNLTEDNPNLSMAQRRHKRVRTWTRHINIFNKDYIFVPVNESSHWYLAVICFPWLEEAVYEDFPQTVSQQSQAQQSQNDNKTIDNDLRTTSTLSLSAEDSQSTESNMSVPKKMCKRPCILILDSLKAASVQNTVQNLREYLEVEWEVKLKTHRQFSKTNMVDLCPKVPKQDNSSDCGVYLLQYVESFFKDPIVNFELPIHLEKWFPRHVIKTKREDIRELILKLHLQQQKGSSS
The class given is functional.

Test [9] deals with T5, Sentrin-specific protease 6 (Homo sapiens, UniProt Q9GZR1).
T5 sequence (Q9GZR1 whole entry): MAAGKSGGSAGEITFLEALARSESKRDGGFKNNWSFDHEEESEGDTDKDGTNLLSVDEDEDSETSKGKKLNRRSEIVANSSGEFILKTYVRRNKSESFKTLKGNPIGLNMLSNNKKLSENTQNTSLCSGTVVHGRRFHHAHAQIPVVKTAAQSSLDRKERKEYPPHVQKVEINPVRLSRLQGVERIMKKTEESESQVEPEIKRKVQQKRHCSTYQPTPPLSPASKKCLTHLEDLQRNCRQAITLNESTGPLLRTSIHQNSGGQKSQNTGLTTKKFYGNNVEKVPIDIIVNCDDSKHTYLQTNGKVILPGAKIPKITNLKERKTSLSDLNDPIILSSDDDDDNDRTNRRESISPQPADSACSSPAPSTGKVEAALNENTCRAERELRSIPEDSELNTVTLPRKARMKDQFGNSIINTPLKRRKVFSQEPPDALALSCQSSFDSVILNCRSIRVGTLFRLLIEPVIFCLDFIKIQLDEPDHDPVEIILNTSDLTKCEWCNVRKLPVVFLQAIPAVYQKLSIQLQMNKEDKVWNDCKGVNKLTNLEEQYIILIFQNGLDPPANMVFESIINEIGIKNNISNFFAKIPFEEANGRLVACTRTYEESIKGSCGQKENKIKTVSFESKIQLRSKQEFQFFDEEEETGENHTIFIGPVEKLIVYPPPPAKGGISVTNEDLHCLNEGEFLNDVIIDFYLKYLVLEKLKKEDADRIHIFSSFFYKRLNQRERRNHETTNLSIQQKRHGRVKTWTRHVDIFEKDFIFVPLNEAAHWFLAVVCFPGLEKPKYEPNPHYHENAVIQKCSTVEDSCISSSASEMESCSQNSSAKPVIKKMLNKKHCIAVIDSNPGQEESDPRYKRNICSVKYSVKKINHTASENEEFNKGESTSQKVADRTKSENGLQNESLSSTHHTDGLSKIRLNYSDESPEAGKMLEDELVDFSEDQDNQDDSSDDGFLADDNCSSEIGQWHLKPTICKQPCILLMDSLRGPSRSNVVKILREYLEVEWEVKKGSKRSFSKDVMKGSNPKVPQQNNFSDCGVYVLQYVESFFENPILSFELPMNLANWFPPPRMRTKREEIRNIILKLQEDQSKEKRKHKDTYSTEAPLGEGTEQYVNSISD
The class given is functional.

In test [10] the target is T6, Sentrin-specific protease 8 (Homo sapiens, UniProt Q96LD8).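 Further: luminescence read-out of SENP8 inhibition, dose-response confirmation following an ultra-high-throughput screen.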
T6 sequence (Q96LD8 whole entry): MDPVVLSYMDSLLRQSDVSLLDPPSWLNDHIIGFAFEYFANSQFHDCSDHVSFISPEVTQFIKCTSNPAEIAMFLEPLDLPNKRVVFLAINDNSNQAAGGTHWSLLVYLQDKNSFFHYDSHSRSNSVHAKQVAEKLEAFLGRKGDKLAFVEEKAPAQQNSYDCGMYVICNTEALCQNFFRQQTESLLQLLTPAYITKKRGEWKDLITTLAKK
The class given is functional.

The target of test [11] is T7, Oxysterols receptor LXR-beta (Homo sapiens, UniProt P55055).
T7 sequence (P55055 whole entry): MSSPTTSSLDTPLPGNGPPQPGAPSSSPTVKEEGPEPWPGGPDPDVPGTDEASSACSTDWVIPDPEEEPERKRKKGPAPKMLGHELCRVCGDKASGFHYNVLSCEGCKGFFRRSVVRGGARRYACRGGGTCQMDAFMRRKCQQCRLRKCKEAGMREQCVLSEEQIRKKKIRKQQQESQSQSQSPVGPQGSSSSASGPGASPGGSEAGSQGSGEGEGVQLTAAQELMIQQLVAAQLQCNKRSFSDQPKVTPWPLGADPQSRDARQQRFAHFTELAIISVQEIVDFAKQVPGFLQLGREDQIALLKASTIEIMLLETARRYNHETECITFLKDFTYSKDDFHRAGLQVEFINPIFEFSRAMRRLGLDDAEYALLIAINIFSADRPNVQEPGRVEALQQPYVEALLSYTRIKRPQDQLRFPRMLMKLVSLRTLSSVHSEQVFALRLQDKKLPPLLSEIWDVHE
The format is functional, cell-based.

For test [12], the target named is T7, Oxysterols receptor LXR-beta. The class given is functional, cell-based. This is another data set of the same source.

Activity calls are given as the source filed them. Where only a bound is given, the exact number is not on record here.

In ChEMBL document CHEMBL1201862, “PubChem BioAssay data set” (2004) one finds AC50, EC50 and IC50 data, which are given here for seven compounds.

Sequence of NAD-dependent protein deacylase sirtuin-5, mitochondrial (Q9NXA8 whole entry): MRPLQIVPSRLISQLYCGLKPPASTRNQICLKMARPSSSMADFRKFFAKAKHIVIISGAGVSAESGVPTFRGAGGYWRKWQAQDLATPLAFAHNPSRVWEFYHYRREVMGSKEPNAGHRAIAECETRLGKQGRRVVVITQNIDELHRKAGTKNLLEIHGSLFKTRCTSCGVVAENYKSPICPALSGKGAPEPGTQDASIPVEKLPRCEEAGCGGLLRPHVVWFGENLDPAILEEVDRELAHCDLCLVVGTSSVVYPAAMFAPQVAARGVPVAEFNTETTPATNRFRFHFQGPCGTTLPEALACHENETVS

The AC50 is the midpoint of the concentration-response curve, whichever way the signal moves. Regarding `CCOC(=O)Cc1csc(NC(=O)Cn2cnc3c2c(=O)n(C)c(=O)n3C)n1`, the AC50 in test [1] is > 30 µM (inactive).
As to `C[C@H]1CN([C@@H](C)CO)C(=O)Cc2cc(NC(=O)Nc3ccc(F)cc3)ccc2O[C@H]1CN(C)Cc1ccc(Cl)c(Cl)c1`, the AC50 at Paired box protein Pax-8 was 7.04 µM (active); in [2], 32.5 µM (active).
Take `CN1CCN(C2=C(Nc3ccccc3)C(=O)c3ccccc3C2=O)CC1`: the AC50 was 61.7 µM (active) in test [3] and 24 µM (active) in test [4].
The EC50 is the concentration at which the effect is half-maximal. For `Cc1ccc(-c2n[nH]c(Nc3ccccc3)n2)cc1`, the EC50 in “cells” is > 67.5 µM (inactive).
Consider `Cc1ccc(Nc2cc(C)nc3c(C)cccc23)cc1`, for which, in [5], the EC50 was 531 nM (active). For the same compound, the AC50 in test [6] was 34.4 µM (active); in test [1], > 30 µM (inactive).
In the case of `C[C@@H]1CN([C@H](C)CO)C(=O)c2cccc(NC(=O)c3nc4ccccc4s3)c2O[C@@H]1CN(C)CC1CCCCC1`, the AC50 in test [7] was 27.1 µM (active).
Broadly, the IC50 is the concentration that gives 50% inhibition. For the compound `Cc1ccc(-c2nnc(Nc3ccccc3)[nH]2)cc1`, the IC50 is 40.4 µM (active) at Caspase-3, 7.36 µM (active) in test [8], > 100 µM (inactive) in test [9] and > 100 µM (inactive) in test [10]. For the same compound, the EC50 in [11] and in test [12] was > 67.5 µM (inactive) each time.
